How the values were obtained:
rat mGluR5 receptor = target: T1, rat mGluR5 receptor (Rattus norvegicus, UniProt P31424); assay: [3H]-MPEP displacement binding assay, HEK-293 cell membranes expressing rat mGluR5; settings: [3H]-MPEP displacement, rat mGluR5; read-out: Median Ki
T1 construct: expressed in transfected cells; host or cells: HEK-293
Procedure, shortened: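 Membranes from HEK-293 cells expressing rat mGluR5 (12-25 μg protein), incubated 60 min at room temperature with 4 nM [3H]-MPEP in 50 mM Tris pH 7.5, then filtered. Nonspecific binding defined with 10 μM MPEP.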

mGluR5 = mGluR5 (Rattus norvegicus, UniProt P31424); assay: IC50 column under 'Biological Activity' (assay not identified in the shown text; not the binding Ki)
mGluR5, sequence (P31424 21-1203): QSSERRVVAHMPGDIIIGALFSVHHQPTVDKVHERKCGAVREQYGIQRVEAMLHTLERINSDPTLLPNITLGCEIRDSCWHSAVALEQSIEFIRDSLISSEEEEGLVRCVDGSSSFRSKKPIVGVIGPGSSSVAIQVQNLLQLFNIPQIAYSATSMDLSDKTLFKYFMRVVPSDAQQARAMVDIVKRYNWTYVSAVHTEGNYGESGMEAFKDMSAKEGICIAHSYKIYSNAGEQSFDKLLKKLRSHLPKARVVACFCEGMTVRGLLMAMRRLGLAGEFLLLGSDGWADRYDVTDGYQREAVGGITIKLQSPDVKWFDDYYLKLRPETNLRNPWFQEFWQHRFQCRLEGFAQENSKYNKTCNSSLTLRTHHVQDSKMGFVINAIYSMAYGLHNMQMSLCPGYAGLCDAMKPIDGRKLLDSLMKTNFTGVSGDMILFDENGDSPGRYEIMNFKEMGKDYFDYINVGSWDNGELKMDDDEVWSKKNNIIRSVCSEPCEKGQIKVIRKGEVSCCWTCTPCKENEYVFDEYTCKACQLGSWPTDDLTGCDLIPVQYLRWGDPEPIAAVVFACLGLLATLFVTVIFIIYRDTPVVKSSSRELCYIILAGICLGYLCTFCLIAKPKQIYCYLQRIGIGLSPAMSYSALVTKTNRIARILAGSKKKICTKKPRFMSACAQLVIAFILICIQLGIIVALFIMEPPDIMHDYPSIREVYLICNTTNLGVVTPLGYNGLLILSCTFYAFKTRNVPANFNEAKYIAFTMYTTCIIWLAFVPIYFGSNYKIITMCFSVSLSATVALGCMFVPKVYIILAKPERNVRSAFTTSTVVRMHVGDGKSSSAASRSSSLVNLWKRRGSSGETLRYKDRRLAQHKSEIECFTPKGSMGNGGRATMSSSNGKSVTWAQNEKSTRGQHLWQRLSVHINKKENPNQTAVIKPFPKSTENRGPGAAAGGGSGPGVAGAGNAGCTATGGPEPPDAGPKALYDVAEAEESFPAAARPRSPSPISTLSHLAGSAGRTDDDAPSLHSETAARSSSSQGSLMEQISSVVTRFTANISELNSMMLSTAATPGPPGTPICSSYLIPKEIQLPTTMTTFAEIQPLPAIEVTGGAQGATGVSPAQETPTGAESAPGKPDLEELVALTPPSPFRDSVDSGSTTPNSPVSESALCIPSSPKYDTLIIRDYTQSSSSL

T1 sequence (P31424 21-1203): as above

SMILES	Ki (rat mGluR5 receptor)	IC50 (mGluR5)
COc1ccc(C(=O)N2CCN(c3ncc(Br)c(OC)n3)CC2)cc1C#Cc1ccccn1 [Compound 197, 5-bromo-4-methoxy-2-{4-[4-methoxy-3-(pyridin-2-ylethynyl)benzoyl]piperazin-1-yl}pyrimidine]	12 nM	56 nM
COc1ccc(C(=O)N2C[C@H]3C[C@H]2CN3c2ccc(Cl)cc2)cc1C#Cc1ccccn1 [Compound 199, (1R,4S)-2-(4-chlorophenyl)-5-[4-methoxy-3-(pyridin-2-ylethynyl)benzoyl]-2,5-diazabicyclo[2.2.1]heptane]	76 nM	> 1000 nM
COc1ccnc(N2CCN(C(=O)c3ccc(OC)c(C#Cc4ccccn4)c3)CC2)n1 [Compound 200, 4-methoxy-2-{4-[4-methoxy-3-(pyridin-2-ylethynyl)benzoyl]piperazin-1-yl}pyrimidine]	21 nM	24 nM
COc1ccc(C(=O)N2CCN(c3cncc(C)n3)CC2)cc1C#Cc1ccccn1 [Compound 204, 2-{4-[4-methoxy-3-(pyridin-2-ylethynyl)benzoyl]piperazin-1-yl}-6-methylpyrazine]	29 nM	132 nM
COc1ccc(C(=O)N2CCCN(c3ccccn3)CC2)cc1C#Cc1ccccn1 [Compound 205, 1-[4-methoxy-3-(pyridin-2-ylethynyl)benzoyl]-4-pyridin-2-yl-1,4-diazepane]	131 nM	> 1000 nM
COc1ccc(C(=O)N2CCN(c3nnc(C(F)(F)F)s3)CC2)cc1C#Cc1ccccn1 [Compound 206, 1-[4-methoxy-3-(pyridin-2-ylethynyl)benzoyl]-4-[5-(trifluoromethyl)-1,3,4-thiadiazol-2-yl]piperazine]	66 nM	295 nM
COc1ccc(C(=O)N2C[C@H]3C[C@H]2CN3c2cccc(F)c2)cc1C#Cc1ccccn1 [Compound 207, (1R,4S)-2-(3-fluorophenyl)-5-[4-methoxy-3-(pyridin-2-ylethynyl)benzoyl]-2,5-diazabicyclo[2.2.1]heptane]	19 nM	306 nM
COc1ccc(C(=O)N2CCN(c3cc(C)nc(C(C)C)n3)CC2)cc1C#Cc1ccccn1 [Compound 220, 2-isopropyl-4-{4-[4-methoxy-3-(pyridin-2-ylethynyl)benzoyl]piperazin-1-yl}-6-methylpyrimidine]	89 nM	> 1000 nM
COc1ccc(C(=O)N2CCN(S(=O)(=O)c3ccc(Cl)s3)CC2)cc1C#Cc1ccccn1 [Compound 225, 1-[(5-chloro-2-thienyl)sulfonyl]-4-[4-methoxy-3-(pyridin-2-ylethynyl)benzoyl]piperazine]	51 nM	> 1000 nM
COc1ccc(C(=O)N2C[C@@H]3C[C@@H]2CN3c2ccc(C)cc2)cc1C#Cc1ccccn1 [Compound 226, (1R,4S)-2-[4-methoxy-3-(pyridin-2-ylethynyl)benzoyl]-5-(4-methylphenyl)-2,5-diazabicyclo[2.2.1]heptane]	277 nM	> 1000 nM
COc1ccc(C(=O)N2CCN(S(=O)(=O)c3ccc4c(c3)OCCO4)CC2)cc1C#Cc1ccccn1 [Compound 235, 1-(2,3-dihydro-1,4-benzodioxin-6-ylsulfonyl)-4-[4-methoxy-3-(pyridin-2-ylethynyl)benzoyl]piperazine]	75 nM	> 1000 nM
COc1ccc(C(=O)N2CCN(S(=O)(=O)c3ccc(Cl)cc3)CC2)cc1C#Cc1ccccn1 [Compound 243, 1-[(4-chlorophenyl)sulfonyl]-4-[4-methoxy-3-(pyridin-2-ylethynyl)benzoyl]piperazine]	14 nM	154 nM
COc1ccc(C(=O)N2CCN(C(=O)c3ccccc3)CC2)cc1C#Cc1ccccn1 [Compound 244, 1-benzoyl-4-[4-methoxy-3-(pyridin-2-ylethynyl)benzoyl]piperazine]	54 nM	237 nM
CCS(=O)(=O)N1CCN(C(=O)c2ccc(OC)c(C#Cc3ccccn3)c2)CC1 [Compound 245, 1-(ethylsulfonyl)-4-[4-methoxy-3-(pyridin-2-ylethynyl)benzoyl]piperazine]	231 nM	344 nM
COc1ccc(C(=O)N2CCN(C(=O)C3CC3)CC2)cc1C#Cc1ccccn1 [Compound 248, 1-(cyclopropylcarbonyl)-4-[4-methoxy-3-(pyridin-2-ylethynyl)benzoyl]piperazine]	83 nM	> 1000 nM

More lines, now with the values ahead:

Ki (rat mGluR5 receptor)	IC50 (mGluR5)	SMILES
26 nM	702 nM	COc1ccc(C(=O)N2CCN(c3cccc(O)c3)CC2)cc1C#Cc1ccccn1 [Compound 195, 3-{4-[4-methoxy-3-(pyridin-2-ylethynyl)benzoyl]piperazin-1-yl}phenol]
16 nM	65 nM	COc1ccc(C(=O)N2CCN(c3cccc(C)c3)CC2)cc1C#Cc1ccccn1 [Compound 196, 1-[4-methoxy-3-(pyridin-2-ylethynyl)benzoyl]-4-(3-methylphenyl)piperazine]
3 nM	24 nM	COc1ccc(C(=O)N2CCN(c3nsc4ccccc34)CC2)cc1C#Cc1ccccn1 [Compound 201, 3-{4-[4-methoxy-3-(pyridin-2-ylethynyl)benzoyl]piperazin-1-yl}-1,2-benzisothiazole]
21 nM	141 nM	COc1ccc(C(=O)N2CCN(c3ncccc3C)CC2)cc1C#Cc1ccccn1 [Compound 208, 1-[4-methoxy-3-(pyridin-2-ylethynyl)benzoyl]-4-(3-methylpyridin-2-yl)piperazine]
11 nM	86 nM	COc1cccc(N2CCN(C(=O)c3ccc(OC)c(C#Cc4ccccn4)c3)CC2)n1 [Compound 213, 1-(6-methoxypyridin-2-yl)-4-[4-methoxy-3-(pyridin-2-ylethynyl)benzoyl]piperazine]
107 nM	> 1000 nM	COc1ccc(C(=O)N2CCN(c3ccccc3Cl)CC2)cc1C#Cc1ccccn1 [Compound 216, 1-(2-chlorophenyl)-4-[4-methoxy-3-(pyridin-2-ylethynyl)benzoyl]piperazine]
27 nM	336 nM	COc1ccc(C(=O)N2CCN(c3ccc(Cl)cc3)CC2)cc1C#Cc1ccccn1 [Compound 217, 1-(4-chlorophenyl)-4-[4-methoxy-3-(pyridin-2-ylethynyl)benzoyl]piperazine]
48 nM	> 1000 nM	COc1ccc(C(=O)N2CCN(c3ccc(Cl)c(Cl)c3)CC2)cc1C#Cc1ccccn1 [Compound 218, 1-(3,4-dichlorophenyl)-4-[4-methoxy-3-(pyridin-2-ylethynyl)benzoyl]piperazine]
168 nM	> 1000 nM	COc1ccc(C(=O)N2CCN(c3cccc(C)c3C)CC2)cc1C#Cc1ccccn1 [Compound 219, 1-(2,3-dimethylphenyl)-4-[4-methoxy-3-(pyridin-2-ylethynyl)benzoyl]piperazine]
100 nM	> 1000 nM	COc1ccc(C(=O)N2CCN(c3ccccc3C)CC2)cc1C#Cc1ccccn1 [Compound 221, 1-[4-methoxy-3-(pyridin-2-ylethynyl)benzoyl]-4-(2-methylphenyl)piperazine]
74 nM	> 1000 nM	COc1ccc(C(=O)N2CCN(c3ccc(C)cc3)CC2)cc1C#Cc1ccccn1 [Compound 222, 1-[4-methoxy-3-(pyridin-2-ylethynyl)benzoyl]-4-(4-methylphenyl)piperazine]
10 nM	103 nM	COc1ccc(C(=O)N2CCN(c3cccc(F)c3)CC2)cc1C#Cc1ccccn1 [Compound 223, 1-(3-fluorophenyl)-4-[4-methoxy-3-(pyridin-2-ylethynyl)benzoyl]piperazine]
71 nM	> 1000 nM	COc1ccc(C(=O)N2C[C@@H]3C[C@@H]2CN3c2ccc(F)cc2)cc1C#Cc1ccccn1 [Compound 227, (1S,4R)-2-(4-fluorophenyl)-5-[4-methoxy-3-(pyridin-2-ylethynyl)benzoyl]-2,5-diazabicyclo[2.2.1]heptane]
56 nM	> 1000 nM	COc1ccc(C(=O)N2CCN(c3ccc([N+](=O)[O-])cn3)CC2)cc1C#Cc1ccccn1 [Compound 229, 1-[4-methoxy-3-(pyridin-2-ylethynyl)benzoyl]-4-(5-nitropyridin-2-yl)piperazine]
23 nM	244 nM	COc1ccc(C(=O)N2CCN(c3ccc(F)cc3)CC2)cc1C#Cc1ccccn1 [Compound 231, 1-(4-fluorophenyl)-4-[4-methoxy-3-(pyridin-2-ylethynyl)benzoyl]piperazine]
96 nM	> 1000 nM	COc1ccc(C(=O)N2CCN(c3ccc([N+](=O)[O-])cc3)CC2)cc1C#Cc1ccccn1 [Compound 232, 1-[4-methoxy-3-(pyridin-2-ylethynyl)benzoyl]-4-(4-nitrophenyl)piperazine]
66 nM	> 1000 nM	COc1ccc(N2CCN(C(=O)c3ccc(OC)c(C#Cc4ccccn4)c3)CC2)cc1 [Compound 233, 1-(4-methoxyphenyl)-4-[4-methoxy-3-(pyridin-2-ylethynyl)benzoyl]piperazine]
78 nM	> 1000 nM	COc1ccc(C(=O)N2CCN(c3ccncc3)CC2)cc1C#Cc1ccccn1 [Compound 236, 1-[4-methoxy-3-(pyridin-2-ylethynyl)benzoyl]-4-pyridin-4-ylpiperazine]
21 nM	119 nM	COc1ccc(C(=O)N2CCN(c3ccc(C(C)=O)cc3)CC2)cc1C#Cc1ccccn1 [Compound 237, 1-(4-{4-[4-methoxy-3-(pyridin-2-ylethynyl)benzoyl]piperazin-1-yl}phenyl)ethanone]
15 nM	81 nM	COc1cccc(N2CCN(C(=O)c3ccc(OC)c(C#Cc4ccccn4)c3)CC2)c1 [Compound 241, 1-(3-methoxyphenyl)-4-[4-methoxy-3-(pyridin-2-ylethynyl)benzoyl]piperazine]
17 nM	85 nM	COc1ccc(C(=O)N2CCN(c3nccs3)CC2)cc1C#Cc1ccccn1 [Compound 247, 1-[4-methoxy-3-(pyridin-2-ylethynyl)benzoyl]-4-(1,3-thiazol-2-yl)piperazine]

Source: US20090325964A1, “Piperazine Metabotropic Glutamate Receptor 5 (MGLUR5) Negative Allosteric Modulators For Anxiety/Depression” (Wyeth, priority 2008, published 2009)
